From PubChem BioAssay AID248 (DTP/NCI, 2004)
Several values for one entry are separate records, joined by “and”; a condition that tells them apart may be missing. Equal values may be shown once. Toxic doses and inconclusive results are not listed. Cut-off read from the data, not from the text of the source: active = T/C of 150% or more; inactive = T/C below 125%.

Test system: L1210 leukemia ip in BDF1 mice, survival T/C
Test: NCI In Vivo Anticancer Drug Screen. Data for tumor model L1210 Leukemia (intraperitoneal) in B6D2F1 (BDF1) mice
Conditions: higher = longer survival
Summary of the method: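 Read-out is survival time, reported as the treated-group measurement over the vehicle-control measurement.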

[1] = endpoint: mean survival time, dose: 100.0 mg/kg/injection, schedule: Q01DX001 (ip), vehicle: Klucel (hydroxypropylcellulose) (HPC)
[2] = endpoint: mean survival time, dose: 200.0 mg/kg/injection, schedule: Q01DX001 (ip), vehicle: Klucel (hydroxypropylcellulose) (HPC)
[3] = endpoint: mean survival time, dose: 400.0 mg/kg/injection, schedule: Q01DX001 (ip), vehicle: Klucel (hydroxypropylcellulose) (HPC)
[4] = endpoint: mean survival time, dose: 100.0 mg/kg/injection, schedule: Q01DX009 (ip), vehicle: saline with Tween-80
[5] = endpoint: mean survival time, dose: 100.0 mg/kg/injection, schedule: Q04DX003 (ip), vehicle: saline with Tween-80
[6] = endpoint: mean survival time, dose: 200.0 mg/kg/injection, schedule: Q01DX009 (ip), vehicle: saline with Tween-80
[7] = endpoint: mean survival time, dose: 200.0 mg/kg/injection, schedule: Q04DX003 (ip), vehicle: saline with Tween-80
[8] = endpoint: mean survival time, dose: 400.0 mg/kg/injection, schedule: Q04DX003 (ip), vehicle: saline with Tween-80
[9] = endpoint: mean survival time, dose: 100.0 mg/kg/injection, schedule: Q01DX001 (ip), vehicle: saline
[10] = endpoint: mean survival time, dose: 200.0 mg/kg/injection, schedule: Q01DX001 (ip), vehicle: saline
[11] = endpoint: mean survival time, dose: 400.0 mg/kg/injection, schedule: Q01DX001 (ip), vehicle: saline
[12] = endpoint: mean survival time, dose: 100.0 mg/kg/injection, schedule: Q04DX003 (ip), vehicle: other
[13] = endpoint: mean survival time, dose: 200.0 mg/kg/injection, schedule: Q04DX003 (ip), vehicle: other
[14] = endpoint: mean survival time, dose: 400.0 mg/kg/injection, schedule: Q04DX003 (ip), vehicle: other
[15] = endpoint: mean survival time, dose: 100.0 mg/kg/injection, schedule: Q01DX001 (ip), vehicle: other
[16] = endpoint: mean survival time, dose: 200.0 mg/kg/injection, schedule: Q01DX001 (ip), vehicle: other
[17] = endpoint: mean survival time, dose: 400.0 mg/kg/injection, schedule: Q01DX001 (ip), vehicle: other

Measured: T/C

c1ccc2c(c1)C(=NOc1nc3ccccc3c3ccccc13)c1ccccc1-2
inactive: [1] 96 % of control | endpoint: mean survival time, dose: 100.0 mg/kg/injection, schedule: Q04DX003 (ip), vehicle: Klucel (hydroxypropylcellulose) (HPC) 93 % of control | [2] 91 % of control | endpoint: mean survival time, dose: 200.0 mg/kg/injection, schedule: Q04DX003 (ip), vehicle: Klucel (hydroxypropylcellulose) (HPC) 95 % of control | [3] 86 % of control | endpoint: mean survival time, dose: 400.0 mg/kg/injection, schedule: Q04DX003 (ip), vehicle: Klucel (hydroxypropylcellulose) (HPC) 99 % of control

CC1(C)OC2C(CNCCCl)OC(OCc3ccccc3)C2O1 (centres undefined)
inactive: endpoint: mean survival time, dose: 50.0 mg/kg/injection, schedule: Q04DX003 (ip), vehicle: saline 96 % of control | endpoint: mean survival time, dose: 100.0 mg/kg/injection, schedule: Q04DX003 (ip), vehicle: saline 96 % of control

CC(=O)Oc1cc(C=O)cc(OC(C)=O)c1OC(C)=O
inactive: [4] 106 % of control | [5] 106 % of control | [6] 118 % of control | [7] 121 % of control | endpoint: mean survival time, dose: 400.0 mg/kg/injection, schedule: Q01DX009 (ip), vehicle: saline with Tween-80 90 % of control | [8] 108 % of control

CC(C)(C)OC(=O)N/N=C1\CC2CCC1C2 (centres undefined)
inactive: endpoint: mean survival time, dose: 100.0 mg/kg/injection, schedule: Q04DX003 (ip), vehicle: acetone 95 % of control

CC(C)(C)C1CCC(C(=O)c2ccccc2)CC1 (centres undefined)
inactive: [5] 100 % of control | [7] 94 % of control | [8] 89 % of control

CCC1NC(C(=O)O)CS1 (centres undefined)
inactive: [9] 96 % of control | [10] 100 % of control | [11] 89 % of control

CC(C)C(N)C(=O)OC(=O)C(N)CCCCN (centres undefined)
inactive: endpoint: mean survival time, dose: 12.5 mg/kg/injection, schedule: Q04DX002 (ip), vehicle: saline 107 % of control | endpoint: mean survival time, dose: 25.0 mg/kg/injection, schedule: Q04DX002 (ip), vehicle: saline 104 % of control | endpoint: mean survival time, dose: 50.0 mg/kg/injection, schedule: Q04DX002 (ip), vehicle: saline 101 % of control | [9] 108 % of control | [10] 101 % of control | [11] 98 % of control

OCCC(c1ccccc1)(c1ccccc1)c1ccccc1
inactive: endpoint: mean survival time, dose: 6.25 mg/kg/injection, schedule: Q04DX003 (ip), vehicle: saline with Tween-80 98 % of control | endpoint: mean survival time, dose: 12.5 mg/kg/injection, schedule: Q04DX003 (ip), vehicle: saline with Tween-80 100 % of control | endpoint: mean survival time, dose: 25.0 mg/kg/injection, schedule: Q04DX003 (ip), vehicle: saline with Tween-80 89 % of control and 91 % of control | [5] 90 % of control

ClC(Cl)(Cl)C(c1cccs1)c1cccs1
inactive: endpoint: mean survival time, dose: 100.0 mg/kg/injection, schedule: Q01DX009 (ip), vehicle: Klucel (hydroxypropylcellulose) (HPC) 94 % of control | endpoint: mean survival time, dose: 100.0 mg/kg/injection, schedule: Q04DX002 (ip), vehicle: Klucel (hydroxypropylcellulose) (HPC) 93 % of control | endpoint: mean survival time, dose: 200.0 mg/kg/injection, schedule: Q01DX009 (ip), vehicle: Klucel (hydroxypropylcellulose) (HPC) 94 % of control | endpoint: mean survival time, dose: 200.0 mg/kg/injection, schedule: Q04DX002 (ip), vehicle: Klucel (hydroxypropylcellulose) (HPC) 96 % of control | endpoint: mean survival time, dose: 400.0 mg/kg/injection, schedule: Q01DX009 (ip), vehicle: Klucel (hydroxypropylcellulose) (HPC) 94 % of control | endpoint: mean survival time, dose: 400.0 mg/kg/injection, schedule: Q04DX002 (ip), vehicle: Klucel (hydroxypropylcellulose) (HPC) 96 % of control

CC(=O)C1=C(O)c2ccccc2C(=O)C1=O
inactive: endpoint: mean survival time, dose: 100.0 mg/kg/injection, schedule: Q01DX001 (ip), vehicle: water 96 % of control

Cc1cnc(Cl)[nH]1 (tested in a mixture with another compound)
inactive: endpoint: mean survival time, dose: 100.0 mg/kg/injection, schedule: Q04DX002 (ip), vehicle: saline with Tween-80 100 % of control | endpoint: mean survival time, dose: 200.0 mg/kg/injection, schedule: Q04DX002 (ip), vehicle: saline with Tween-80 113 % of control | endpoint: mean survival time, dose: 400.0 mg/kg/injection, schedule: Q04DX002 (ip), vehicle: saline with Tween-80 113 % of control

CC1=C(C)CC(C(=O)c2ccccc2)=C(C(=O)c2ccccc2)C1
inactive: [1] 95 % of control | [2] 90 % of control | [3] 90 % of control

CCC1(C)CC(=O)N(C/C=C(\C)CCC(=O)O)C(=O)C1
inactive: endpoint: mean survival time, dose: 100.0 mg/kg/injection, schedule: Q01DX009 (ip), vehicle: other 103 % of control | [12] 89 % of control | endpoint: mean survival time, dose: 200.0 mg/kg/injection, schedule: Q01DX009 (ip), vehicle: other 101 % of control | [13] 100 % of control | endpoint: mean survival time, dose: 400.0 mg/kg/injection, schedule: Q01DX009 (ip), vehicle: other 93 % of control | [14] 96 % of control

COC(=O)c1ccccc1N=NN(C)C
inactive: endpoint: mean survival time, dose: 100.0 mg/kg/injection, schedule: Q01DX001 (ip), vehicle: carboxymethylcellulose (CMC) 102 % of control | endpoint: mean survival time, dose: 200.0 mg/kg/injection, schedule: Q01DX001 (ip), vehicle: carboxymethylcellulose (CMC) 102 % of control | endpoint: median survival time, dose: 65.0 mg/kg/injection, schedule: Q01DX001 (ip), vehicle: steriod suspending solution 110 % of control | endpoint: median survival time, dose: 108.0 mg/kg/injection, schedule: Q01DX001 (ip), vehicle: steriod suspending solution 105 % of control | endpoint: median survival time, dose: 180.0 mg/kg/injection, schedule: Q01DX001 (ip), vehicle: steriod suspending solution 120 % of control | endpoint: median survival time, dose: 300.0 mg/kg/injection, schedule: Q01DX001 (ip), vehicle: steriod suspending solution 105 % of control

CCOC(=O)c1cn[nH]c1/N=N/N(C)C
inactive: endpoint: mean survival time, dose: 42.0 mg/kg/injection, schedule: Q01DX009 (ip), vehicle: carboxymethylcellulose (CMC) 113 % of control | endpoint: mean survival time, dose: 178.0 mg/kg/injection, schedule: Q01DX001 (ip), vehicle: carboxymethylcellulose (CMC) 110 % of control | endpoint: mean survival time, dose: 267.0 mg/kg/injection, schedule: Q01DX001 (ip), vehicle: carboxymethylcellulose (CMC) 112 % of control

Nc1ccc(N=Nc2ccc(S(N)(=O)=O)cc2)cn1
inactive: endpoint: mean survival time, dose: 50.0 mg/kg/injection, schedule: Q01DX001 (ip), vehicle: other 97 % of control | [15] 94 % of control | [16] 103 % of control | [17] 100 % of control

COc1ccc(Cl)cc1CCCO
inactive: endpoint: mean survival time, dose: 50.0 mg/kg/injection, schedule: Q01DX001 (ip), vehicle: saline 100 % of control | [9] 100 % of control | [10] 92 % of control | [11] 119 % of control

O=C(c1cccc([N+](=O)[O-])c1)c1ccc(O)cc1O
inactive: [15] 103 % of control | [12] 103 % of control | [16] 95 % of control | [13] 100 % of control | [17] 95 % of control | [14] 100 % of control

CC1CC(CN2c3ccccc3Sc3ccccc32)C(C)N1C (centres undefined)
inactive: endpoint: mean survival time, dose: 12.5 mg/kg/injection, schedule: Q04DX003 (ip), vehicle: acetone 101 % of control | endpoint: mean survival time, dose: 25.0 mg/kg/injection, schedule: Q04DX003 (ip), vehicle: acetone 120 % of control

Cc1ccc(/C=C2\CC(C)(C)c3ccccc3C2=O)cc1
inactive: [7] 100 % of control | [8] 93 % of control

CC12CCC(CC1C(=O)O)C2 (centres undefined)
inactive: [5] 96 % of control | [7] 94 % of control | [8] 98 % of control

CC(C)C1CCC(N)CC1 (centres undefined)
inactive: endpoint: mean survival time, dose: 75.0 mg/kg/injection, schedule: Q01DX001 (ip), vehicle: saline 100 % of control

COc1cc2c(cc1OC(C)=O)C(=O)C(Br)CCC2 (centres undefined)
inactive: endpoint: mean survival time, dose: 50.0 mg/kg/injection, schedule: Q01DX009 (ip), vehicle: saline with Tween-80 90 % of control | [4] 101 % of control | [6] 93 % of control
